Data published in patent US8962639B2, “Potassium channel modulators” (AbbVie Inc., priority 2009, dated 2015).

Molecular target: T1, human KCNQ2 and KCNQ3 (Homo sapiens, UniProt O43525+O43526)
T1 construct: expressed in transfected cells; host or cells: HEK293
Experiment: KCNQ 2/3 channel activation, thallium flux FLIPR assay (BTC-AM dye) in HEK293 cells
Format: cell-based
Experimental: The following example describes the assay that can be used to identify compounds that activate KCNQ 2/3 channels.
HEK293 cells stably expressing human KCNQ2 and KCNQ3 were seeded in 96-well, black-walled, clear-bottomed, poly-D-lysine coated plates (BD Biosciences, Bedford, Mass.) at a density of 1×10^5 cells per well 24 hours before the assay. On the assay day, BTC-AM dye (Invitrogen, Carlsbad, Calif.) was loaded into the cells by replacing the cell culture medium with 100 μL/well of 4 μM dye in DPBS. Dye loading was allowed to proceed for 2 hours at room temperature and then cells were washed twice in 100 μL/well of assay buffer (in mM: 10 HEPES pH 7.3, 5 glucose, 140 Na-gluconate, 2.5 K-gluconate, 3.6 Ca-gluconate, 2 MgSO4, 0.1 Ouabain) to remove unloaded dye. Cells were incubated in 50 μL of assay buffer before loading onto a FLIPR system (Molecular Devices, Sunnyvale, Calif.). Various concentrations of compounds to be assayed were added to the cells in 50 μL of assay buffer and incubated for 4 minutes. The fluorescence signal was initiated by adding 100 μL of assay buffer containing 6 mM TlNO3 and 10 mM K2SO4. Fluors were excited using the 488-nm line of an argon laser and emission was filtered using a 540±30 nm bandpass filter. Fluorescent signals were recorded for 3 minutes. Responses over baseline values were plotted versus concentrations of test compounds to obtain an EC50 value. The maximum response for each test compound was determined relative to the response produced at 10 μM by retigabine. The maximum response of retigabine at 10 μM was set at 100%.

T1 sequence (O43526 whole entry): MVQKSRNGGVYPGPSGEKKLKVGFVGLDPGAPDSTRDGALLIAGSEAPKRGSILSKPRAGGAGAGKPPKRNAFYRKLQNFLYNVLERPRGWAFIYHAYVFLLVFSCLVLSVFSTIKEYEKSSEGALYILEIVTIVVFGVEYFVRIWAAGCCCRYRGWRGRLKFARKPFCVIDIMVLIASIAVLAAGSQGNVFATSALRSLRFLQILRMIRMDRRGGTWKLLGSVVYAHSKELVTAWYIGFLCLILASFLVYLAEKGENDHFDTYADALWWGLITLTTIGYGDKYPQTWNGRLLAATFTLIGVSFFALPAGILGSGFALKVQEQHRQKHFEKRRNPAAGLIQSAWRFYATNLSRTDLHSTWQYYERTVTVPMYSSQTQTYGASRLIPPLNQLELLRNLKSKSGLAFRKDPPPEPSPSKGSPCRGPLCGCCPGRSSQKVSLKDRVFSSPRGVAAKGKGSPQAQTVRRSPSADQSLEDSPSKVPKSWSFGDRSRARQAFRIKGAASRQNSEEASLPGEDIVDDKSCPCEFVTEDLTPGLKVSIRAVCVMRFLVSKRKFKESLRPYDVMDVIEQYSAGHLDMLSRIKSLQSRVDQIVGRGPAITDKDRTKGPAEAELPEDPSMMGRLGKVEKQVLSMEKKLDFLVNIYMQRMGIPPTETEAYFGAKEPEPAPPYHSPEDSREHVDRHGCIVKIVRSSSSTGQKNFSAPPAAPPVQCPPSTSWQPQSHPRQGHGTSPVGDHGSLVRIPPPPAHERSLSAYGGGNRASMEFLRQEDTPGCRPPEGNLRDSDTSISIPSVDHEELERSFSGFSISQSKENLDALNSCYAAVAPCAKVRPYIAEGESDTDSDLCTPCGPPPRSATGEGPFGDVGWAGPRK
T1 sequence (O43525 whole entry): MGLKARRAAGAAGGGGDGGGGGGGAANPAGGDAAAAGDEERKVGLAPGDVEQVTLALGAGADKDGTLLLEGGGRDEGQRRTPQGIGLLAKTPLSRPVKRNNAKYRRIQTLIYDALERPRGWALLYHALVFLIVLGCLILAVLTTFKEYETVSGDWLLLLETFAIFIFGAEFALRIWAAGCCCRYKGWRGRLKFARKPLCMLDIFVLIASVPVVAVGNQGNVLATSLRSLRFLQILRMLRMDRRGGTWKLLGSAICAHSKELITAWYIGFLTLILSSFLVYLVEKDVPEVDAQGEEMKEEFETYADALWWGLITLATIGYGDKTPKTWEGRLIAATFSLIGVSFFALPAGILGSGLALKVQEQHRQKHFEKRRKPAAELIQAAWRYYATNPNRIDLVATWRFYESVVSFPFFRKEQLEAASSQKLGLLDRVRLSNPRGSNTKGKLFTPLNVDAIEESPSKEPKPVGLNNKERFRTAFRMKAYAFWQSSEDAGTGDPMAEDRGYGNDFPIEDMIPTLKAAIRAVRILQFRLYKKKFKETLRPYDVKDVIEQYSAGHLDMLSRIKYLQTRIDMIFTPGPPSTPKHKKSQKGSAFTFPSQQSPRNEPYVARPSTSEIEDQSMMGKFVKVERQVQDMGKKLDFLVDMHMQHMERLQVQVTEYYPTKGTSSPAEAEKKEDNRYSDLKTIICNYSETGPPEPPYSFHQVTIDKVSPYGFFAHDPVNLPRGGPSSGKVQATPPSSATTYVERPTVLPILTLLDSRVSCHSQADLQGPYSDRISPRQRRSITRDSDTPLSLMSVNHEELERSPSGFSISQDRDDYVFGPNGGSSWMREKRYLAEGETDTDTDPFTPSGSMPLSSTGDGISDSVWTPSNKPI

- Emax (HEK293, maximum response relative to response of retigabine at 10 μM set at 100%, read-out: Max response): 176%
- EC50 (HEK293 cells stably expressing human KCNQ2 and KCNQ3, compound incubated 4 minutes, Tl+ flux fluorescence): 535 nM
SMILES: O=C(CC1CC2CCC1C2)Nn1c(-c2ccccc2)nc2ccccc2c1=O (racemic) [Example 12, (±)-exo-2-bicyclo[2.2.1]hept-2-yl-N-(4-oxo-2-phenylquinazolin-3(4H)-yl)acetamide]
